Reference: patent US7655683B2, “Imidazolopyrazole derivatives useful as selective androgen receptor modulators” (Janssen Pharmaceutica NV, priority 2006, dated 2010)

Tests used:
[1] = system: ventral prostate and levator ani of immature castrated male Sprague Dawley rats; assay: Ventral Prostate and Levator ani Weight in vivo Assay (agonist activity); set-up: key to % Prostate Stimulation / % levator ani Stimulation: level 1 agonist active if it produced greater than or equal to 30% stimulation of levator ani or ventral prostate at 30 mg/kg; level 2 agonist active if it produced greater than or equal to 5% but less than 30% stimulation of levator ani or ventral prostate at 30 mg/kg; listed herein as “inactive” as they did not meet the specified criteria defined above; details: once daily for five days, oral, vehicle = 0%, testosterone propionate = 100%, criteria at 30 mg/kg, 30 mg/kg; for % levator ani Stimulation: levator ani wet weight; for % Prostate Stimulation: ventral prostate wet weight
Procedure: Immature (approximately 50 g) castrated male Sprague Dawley rats (Charles River) were treated once daily for five days with test compound ([…], in 30% cyclodextrin or 0.5% methylcellulose vehicle), or with testosterone propionate (administered subcutaneously by injection at the nape of the neck at 5 mg/kg, in a volume of 0.1 mL in sesame oil), or with vehicle (1 mL of 30% cyclodextrin or 0.5% methylcellulose, given orally). On the sixth day, the rats were euthanized by asphyxiation in carbon dioxide. Ventral prostates and levator ani. muscle were removed and their wet weights determined.
Test compound activity was determined as the percent stimulation of tissue weight, with the vehicle-treated control group set to zero percent and the testosterone alone-treated control group set to 100%.

[2] = system: ventral prostate and seminal vesicle of immature castrated male Sprague Dawley rats; assay: Ventral Prostate and Seminal Vesicle Weight in vivo Assay (antagonist activity, with testosterone propionate); set-up: key to Inhibition of prostate (non-weight prostate weight, mg) / Inhibition of seminal vesicle (non-weight seminal vesicle weight, mg): level 1 agonist active if it produced greater than or equal to 30% stimulation of levator ani or ventral prostate at 30 mg/kg; level 2 agonist active if it produced greater than or equal to 5% but less than 30% stimulation of levator ani or ventral prostate at 30 mg/kg; listed herein as “inactive” as they did not meet the specified criteria defined above; details: test compound oral plus testosterone propionate 2 mg/kg s.c., five days, criteria at 30 mg/kg; for Inhibition of seminal vesicle (non-weight seminal vesicle weight, mg): seminal vesicle wet weight; for Inhibition of prostate (non-weight prostate weight, mg): ventral prostate wet weight
Procedure: Immature (approximately 50 g) castrated male Sprague Dawley rats (Charles River) were treated once daily for five days with test compound ([…], in 30% cyclodextrin or 0.5% methylcellulose vehicle) and with testosterone propionate (given subcutaneously by injection at the nape of the neck at 2 mg/kg, in a volume of 0.1 mL in sesame oil). On the sixth day, the rats were euthanized by asphyxiation in carbon dioxide. Ventral prosatates and seminal vesicles were removed and their wet weights determined. Test compound activity was determined as the percent inhibition of testosterone-enhanced tissue weights, with a vehicle-treated control group set to zero percent and a testosterone alone-treated control group set to 100%.

C[C@]12CC(C(F)(F)F)=NN1C(N)=NC2=Nc1ccc(C#N)c(C(F)(F)F)c1.O [Compound 16, 4-(6-Amino-3aR-methyl-2-trifluoromethyl-3,3a-dihydro-imidazo[1,5-b]pyrazol-4-ylideneamino)-2-trifluoromethyl-benzonitrile-Hydrates]
% levator ani Stimulation [1]: level 1 (level 1 agonist active if it produced greater than or equal to 30% stimulation of levator ani or ventral prostate at 30 mg/kg) | % Prostate Stimulation [1]: level 1 (level 1 agonist active if it produced greater than or equal to 30% stimulation of levator ani or ventral prostate at 30 mg/kg) | Inhibition of seminal vesicle (non-weight seminal vesicle weight, mg) [2]: level 2 (level 2 antagonist active if it produced greater than or equal to 5% but less than 30% inhibition of ventral prostate or seminal vesicle at 30 mg/kg) | Inhibition of prostate (non-weight prostate weight, mg) [2]: level 2 (level 2 antagonist active if it produced greater than or equal to 5% but less than 30% inhibition of ventral prostate or seminal vesicle at 30 mg/kg)

C[C@]12CC(C(F)(F)F)=NN1C(N)=NC2=Nc1ccc(C#N)c(C(F)(F)F)c1.O [Compound 17, 4-(6-Amino-3aR-methyl-2-trifluoromethyl-3,3a-dihydro-imidazo[1,5-b]pyrazol-4-ylideneamino)-2-trifluoromethyl-benzonitrile-Hydrates]
% levator ani Stimulation [1]: level 1 (level 1 agonist active if it produced greater than or equal to 30% stimulation of levator ani or ventral prostate at 30 mg/kg) | % Prostate Stimulation [1]: level 2 (level 2 agonist active if it produced greater than or equal to 5% but less than 30% stimulation of levator ani or ventral prostate at 30 mg/kg) | Inhibition of seminal vesicle (non-weight seminal vesicle weight, mg) [2]: leve 1 | Inhibition of prostate (non-weight prostate weight, mg) [2]: inactive

C[C@@]12CC(C(F)(F)F)=NN1C(N)=NC2=Nc1ccc(C#N)c(C(F)(F)F)c1.O [Compound 18, 4-(6-Amino-3aS-methyl-2-trifluoromethyl-3,3a-dihydro-imidazo[1,5-b]pyrazol-4-ylideneamino)-2-trifluoromethyl-benzonitrile-Hydrates]
% levator ani Stimulation [1]: level 2 (level 2 agonist active if it produced greater than or equal to 5% but less than 30% stimulation of levator ani or ventral prostate at 30 mg/kg) | % Prostate Stimulation [1]: inactive | Inhibition of seminal vesicle (non-weight seminal vesicle weight, mg) [2]: inactive | Inhibition of prostate (non-weight prostate weight, mg) [2]: inactive

C[C@@]12CC(C(F)(F)F)=NN1C(N)=NC2=Nc1ccc(C#N)c(C(F)(F)F)c1.O [Compound 19, 4-(6-Amino-3aS-methyl-2-trifluoromethyl-3,3a-dihydro-imidazo[1,5-b]pyrazol-4-ylideneamino)-2-trifluoromethyl-benzonitrile-Hydrates]
% levator ani Stimulation [1]: level 1 (level 1 agonist active if it produced greater than or equal to 30% stimulation of levator ani or ventral prostate at 30 mg/kg) | % Prostate Stimulation [1]: level 1 (level 1 agonist active if it produced greater than or equal to 30% stimulation of levator ani or ventral prostate at 30 mg/kg) | Inhibition of seminal vesicle (non-weight seminal vesicle weight, mg) [2]: level 1 (level 1 antagonist active if it produced greater than or equal to 30% inhibition of ventral prostate or seminal vesicle at 30 mg/kg) | Inhibition of prostate (non-weight prostate weight, mg) [2]: level 1 (level 1 antagonist active if it produced greater than or equal to 30% inhibition of ventral prostate or seminal vesicle at 30 mg/kg)

C[C@]12CC(C(F)(F)F)=NN1C(N)=NC2=Nc1ccc(C#N)c(C(F)(F)F)c1.O [Compound 20, 4-(6-Amino-3aR-methyl-2-trifluoromethyl-3,3a-dihydro-imidazo[1,5-b]pyrazol-4-ylideneamino)-2-trifluoromethyl-benzonitrile-Hydrates]
% levator ani Stimulation [1]: level 2 (level 2 agonist active if it produced greater than or equal to 5% but less than 30% stimulation of levator ani or ventral prostate at 30 mg/kg) | % Prostate Stimulation [1]: level 2 (level 2 agonist active if it produced greater than or equal to 5% but less than 30% stimulation of levator ani or ventral prostate at 30 mg/kg) | Inhibition of seminal vesicle (non-weight seminal vesicle weight, mg) [2]: level 1 (level 1 antagonist active if it produced greater than or equal to 30% inhibition of ventral prostate or seminal vesicle at 30 mg/kg) | Inhibition of prostate (non-weight prostate weight, mg) [2]: level 2 (level 2 antagonist active if it produced greater than or equal to 5% but less than 30% inhibition of ventral prostate or seminal vesicle at 30 mg/kg)

C[C@@]12CC(C(F)(F)F)=NN1C(N)=NC2=Nc1ccc(C#N)c(C(F)(F)F)c1.O [Compound 21, 4-(6-Amino-3aS-methyl-2-trifluoromethyl-3,3a-dihydro-imidazo[1,5-b]pyrazol-4-ylideneamino)-2-trifluoromethyl-benzonitrile-Hydrates]
% levator ani Stimulation [1]: level 1 (level 1 agonist active if it produced greater than or equal to 30% stimulation of levator ani or ventral prostate at 30 mg/kg) | % Prostate Stimulation [1]: level 1 (level 1 agonist active if it produced greater than or equal to 30% stimulation of levator ani or ventral prostate at 30 mg/kg) | Inhibition of seminal vesicle (non-weight seminal vesicle weight, mg) [2]: level 1 (level 1 antagonist active if it produced greater than or equal to 30% inhibition of ventral prostate or seminal vesicle at 30 mg/kg) | Inhibition of prostate (non-weight prostate weight, mg) [2]: level 1 (level 1 antagonist active if it produced greater than or equal to 30% inhibition of ventral prostate or seminal vesicle at 30 mg/kg)
